Experimental findings from ChEMBL document CHEMBL3525951, “Reevaluation of the microsomal metabolism of montelukast: major contribution by CYP2C8 at clinically relevant concentrations” (Drug Metab Dispos, 2011) are described below.

Data set [1] has as its system Liver microsome. As to the kind of experiment: Drug level in human liver microsomes treated with montelukast at 0.02 to 0.4 uM preincubated for 3 mins followed by beta-NADPH addition by LC-MS analysis. In kind it is ADME. For orientation: Liver microsomes are vesicles of endoplasmic reticulum, rich in cytochrome P450 enzymes.
A further data set has as its target Cytochrome P450 3A4 (Homo sapiens, UniProt P08684). The data set is described as follows: Activity of recombinant human CYP3A4 expressed in microsomes isolated from baculovirus infected insect cell assessed as enzyme-mediated 2-(2-((R)-3-((1-(carboxymethyl)cyclopropyl)methylthio)-3-(3-(2-(7-chloroquinolin-2-yl)vinyl)phenyl)propyl)phenyl)-2-hydroxypropanoic acid formation at 0.02 uM after 30 mins by LC-MS analysis. Format: ADME. As to conditions: 0.5 h.

Data set [2] has as its target T1, Cytochrome P450 2A6 (Homo sapiens, UniProt P11509).
T1 sequence (P11509 whole entry): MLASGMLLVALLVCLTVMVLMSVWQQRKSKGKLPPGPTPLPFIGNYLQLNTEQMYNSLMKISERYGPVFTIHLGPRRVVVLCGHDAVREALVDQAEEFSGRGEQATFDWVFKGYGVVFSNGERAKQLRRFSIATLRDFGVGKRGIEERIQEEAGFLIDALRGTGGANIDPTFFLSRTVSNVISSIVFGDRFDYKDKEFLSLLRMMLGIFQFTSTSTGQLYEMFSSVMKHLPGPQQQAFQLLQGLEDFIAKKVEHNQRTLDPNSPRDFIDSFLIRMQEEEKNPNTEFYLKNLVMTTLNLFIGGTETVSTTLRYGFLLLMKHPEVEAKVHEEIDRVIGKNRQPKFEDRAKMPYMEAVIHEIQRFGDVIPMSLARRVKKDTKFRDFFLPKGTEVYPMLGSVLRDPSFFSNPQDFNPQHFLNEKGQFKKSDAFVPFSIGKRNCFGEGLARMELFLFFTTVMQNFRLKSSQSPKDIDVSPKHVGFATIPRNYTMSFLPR
As to the kind of experiment: Activity of recombinant human CYP2A6 expressed in microsomes isolated from baculovirus infected insect cell assessed as enzyme-mediated 2-(2-((R)-3-((1-(carboxymethyl)cyclopropyl)methylthio)-3-(3-(2-(7-chloroquinolin-2-yl)vinyl)phenyl)propyl)phenyl)-2-hydroxypropanoic acid formation at 1 uM after 30 mins by LC-MS analysis. Format: ADME. As to conditions: 0.5 h.

In data set [3] the target is T2, Cytochrome P450 2C19 (Homo sapiens, UniProt P33261). As to the kind of experiment: Activity of recombinant human CYP2C19 expressed in microsomes isolated from baculovirus infected insect cell assessed as enzyme-mediated 2-(2-((R)-3-((1-(carboxymethyl)cyclopropyl)methylthio)-3-(3-(2-(7-chloroquinolin-2-yl)vinyl)phenyl)propyl)phenyl)-2-hydroxypropanoic acid formation at 1 uM after 30 mins by LC-MS analysis. Format: ADME. As to conditions: 0.5 h.
T2 sequence (P33261 whole entry): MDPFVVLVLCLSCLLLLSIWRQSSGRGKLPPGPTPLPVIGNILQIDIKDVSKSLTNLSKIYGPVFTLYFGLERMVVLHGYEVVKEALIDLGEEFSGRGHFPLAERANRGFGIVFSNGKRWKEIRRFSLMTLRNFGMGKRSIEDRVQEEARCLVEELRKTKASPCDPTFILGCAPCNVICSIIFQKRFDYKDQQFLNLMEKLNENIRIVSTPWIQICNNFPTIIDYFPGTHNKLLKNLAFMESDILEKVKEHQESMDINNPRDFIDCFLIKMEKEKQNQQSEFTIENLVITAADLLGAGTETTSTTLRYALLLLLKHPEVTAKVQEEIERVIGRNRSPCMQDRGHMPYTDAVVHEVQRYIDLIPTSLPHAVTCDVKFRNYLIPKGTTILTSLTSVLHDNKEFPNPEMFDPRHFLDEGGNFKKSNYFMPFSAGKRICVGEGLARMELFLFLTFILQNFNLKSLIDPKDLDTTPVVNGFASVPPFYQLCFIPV

In the next data set the target is Cytochrome P450 2E1 (Homo sapiens, UniProt P05181). The data set is described as follows: Activity of recombinant human CYP2E1 expressed in microsomes isolated from baculovirus infected insect cell assessed as enzyme-mediated 2-(2-((R)-3-((1-(carboxymethyl)cyclopropyl)methylthio)-3-(3-(2-(7-chloroquinolin-2-yl)vinyl)phenyl)propyl)phenyl)-2-hydroxypropanoic acid formation at 1 uM after 30 mins by LC-MS analysis. Format: ADME. As to conditions: 0.5 h.
Cytochrome P450 2E1, sequence (P05181 whole entry): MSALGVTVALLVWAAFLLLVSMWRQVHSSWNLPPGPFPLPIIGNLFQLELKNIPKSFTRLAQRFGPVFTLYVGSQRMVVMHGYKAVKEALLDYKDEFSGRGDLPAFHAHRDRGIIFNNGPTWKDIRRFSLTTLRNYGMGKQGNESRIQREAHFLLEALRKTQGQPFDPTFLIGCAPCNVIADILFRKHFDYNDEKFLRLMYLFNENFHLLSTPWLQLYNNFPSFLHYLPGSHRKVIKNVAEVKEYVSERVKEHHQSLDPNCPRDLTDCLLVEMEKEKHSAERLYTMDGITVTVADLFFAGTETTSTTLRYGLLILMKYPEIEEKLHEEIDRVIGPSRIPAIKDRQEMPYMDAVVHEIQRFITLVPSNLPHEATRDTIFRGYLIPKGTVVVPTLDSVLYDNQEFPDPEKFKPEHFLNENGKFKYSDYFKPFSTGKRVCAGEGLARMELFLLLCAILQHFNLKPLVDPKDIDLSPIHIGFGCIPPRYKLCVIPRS

The target of another data set is Cytochrome P450 3A5 (Homo sapiens, UniProt P20815). As to the kind of experiment: Activity of recombinant human CYP3A5 expressed in microsomes isolated from baculovirus infected insect cell assessed as enzyme-mediated 2-(2-((R)-3-((1-(carboxymethyl)cyclopropyl)methylthio)-3-(3-(2-(7-chloroquinolin-2-yl)vinyl)phenyl)propyl)phenyl)-2-hydroxypropanoic acid formation at 1 uM after 30 mins by LC-MS analysis. As to conditions: 0.5 h. Format: ADME.
Cytochrome P450 3A5, sequence (P20815 whole entry): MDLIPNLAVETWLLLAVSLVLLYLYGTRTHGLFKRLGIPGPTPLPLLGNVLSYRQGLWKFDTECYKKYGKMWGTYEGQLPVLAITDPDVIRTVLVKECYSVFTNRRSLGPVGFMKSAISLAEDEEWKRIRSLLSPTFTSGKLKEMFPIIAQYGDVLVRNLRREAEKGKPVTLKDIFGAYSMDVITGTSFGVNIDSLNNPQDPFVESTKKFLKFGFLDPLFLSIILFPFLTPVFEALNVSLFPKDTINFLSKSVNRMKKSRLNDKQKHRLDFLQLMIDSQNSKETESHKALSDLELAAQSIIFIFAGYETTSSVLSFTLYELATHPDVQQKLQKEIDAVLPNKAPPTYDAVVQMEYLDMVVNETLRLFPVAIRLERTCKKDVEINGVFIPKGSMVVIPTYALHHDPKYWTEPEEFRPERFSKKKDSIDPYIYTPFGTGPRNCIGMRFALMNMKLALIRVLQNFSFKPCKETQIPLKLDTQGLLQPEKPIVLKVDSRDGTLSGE

Data set [4] relates to Liver microsome. As to the kind of experiment: Drug metabolism in human liver microsomes assessed as (R)-2-(1-((1-(3-(2-(7-chloroquinolin-2-yl)vinyl)phenyl)-3-(4-hydroxy-2-(2-hydroxypropan-2-yl)phenyl)propylthio)methyl)cyclopropyl)acetic acid formation at 0.02 to 0.4 uM preincubated for 3 mins followed by beta-NADPH addition by LC-MS analysis. In kind it is ADME.
The test system of data set [5] is Liver microsome. As to the kind of experiment: Drug metabolism in human liver microsomes assessed as 2-(2-((R)-3-((1-(carboxymethyl)cyclopropyl)methylthio)-3-(3-(2-(7-chloroquinolin-2-yl)vinyl)phenyl)propyl)phenyl)-2-hydroxypropanoic acid formation at 0.02 to 0.4 uM preincubated for 3 mins followed by beta-NADPH addition by LC-MS analysis. In kind it is ADME.
Data set [6] in a line: Oral bioavailability in human at 10 mg administered through tablet. As to conditions: in vivo. In kind it is ADME, organism-based.
Data set [7] relates to Liver microsome. As to the kind of experiment: Drug metabolism in human liver microsomes assessed as 2-(1-(((1R)-1-(3-(2-(7-chloroquinolin-2-yl)vinyl)phenyl)-3-(2-(1,2-dihydroxypropan-2-yl)phenyl)propylthio)methyl)cyclopropyl)acetic acid formation at 0.4 uM after 15 mins by LC-MS analysis in presence of CYP2C8 inhibitor gemfibrozil 1-O-beta glucuronide and trimethoprim, CYP2C9 inhibitor sulfaphenazole, and CYP2E1 inhibitor DDC. In kind it is ADME. As to conditions: 0.25 h.

In data set [8] the test system is Liver microsome. The data set is described as follows: Drug metabolism in human liver microsomes assessed as (R)-2-(1-((1-(3-(2-(7-chloroquinolin-2-yl)vinyl)phenyl)-3-(4-hydroxy-2-(2-hydroxypropan-2-yl)phenyl)propylthio)methyl)cyclopropyl)acetic acid formation at 0.4 uM after 15 mins by LC-MS analysis in presence of CYP2C8 inhibitor gemfibrozil 1-O-beta glucuronide, CYP2A6 inhibitor 8-methoxy-psoralen and DDC. Conditions: 0.25 h. Format: ADME.

In data set [9] the test system is Liver microsome. As to the kind of experiment: Drug metabolism in human liver microsomes assessed as (R)-2-(1-((1-(3-(2-(7-chloroquinolin-2-yl)vinyl)phenyl)-3-(4-hydroxy-2-(2-hydroxypropan-2-yl)phenyl)propylthio)methyl)cyclopropyl)acetic acid formation at 0.1 uM after 12 mins by LC-MS analysis in presence of 2-(1-(((S)-1-(3-(2-(7-chloroquinolin-2-yl)vinyl)phenyl)-3-(2-(2-hydroxypropan-2-yl)phenyl)propylsulfinyl)methyl)cyclopropyl)acetic acid. As to conditions: 0.2 h. Format: ADME.

Data set [10] has as its target T2, Cytochrome P450 2C19. As to the kind of experiment: Activity of recombinant human CYP2C19 expressed in microsomes isolated from baculovirus infected insect cell assessed as enzyme-mediated (R)-2-(1-((1-(3-(2-(7-chloroquinolin-2-yl)vinyl)phenyl)-3-(4-hydroxy-2-(2-hydroxypropan-2-yl)phenyl)propylthio)methyl)cyclopropyl)acetic acid formation at 1 uM after 60 mins by LC-MS analysis. Conditions: 1 h. In kind it is ADME.

Data set [11] has as its target T1, Cytochrome P450 2A6. The data set is described as follows: Activity of recombinant human CYP2A6 expressed in microsomes isolated from baculovirus infected insect cell assessed as enzyme-mediated compound depletion at 0.02 uM after 30 mins by LC-MS analysis. Conditions: 0.5 h. Format: ADME.
A further data set has as its target Cytochrome P450 2C9 (Homo sapiens, UniProt P11712). As to the kind of experiment: Inhibition of recombinant human CYP2C9 expressed in microsomes isolated from baculovirus infected insect cell after 10 mins.
The test system of another data set is Plasma. The data set is described as follows: Fraction unbound in human plasma. In kind it is ADME, cell-free.

Cytochrome P450 3A4, sequence (P08684 whole entry): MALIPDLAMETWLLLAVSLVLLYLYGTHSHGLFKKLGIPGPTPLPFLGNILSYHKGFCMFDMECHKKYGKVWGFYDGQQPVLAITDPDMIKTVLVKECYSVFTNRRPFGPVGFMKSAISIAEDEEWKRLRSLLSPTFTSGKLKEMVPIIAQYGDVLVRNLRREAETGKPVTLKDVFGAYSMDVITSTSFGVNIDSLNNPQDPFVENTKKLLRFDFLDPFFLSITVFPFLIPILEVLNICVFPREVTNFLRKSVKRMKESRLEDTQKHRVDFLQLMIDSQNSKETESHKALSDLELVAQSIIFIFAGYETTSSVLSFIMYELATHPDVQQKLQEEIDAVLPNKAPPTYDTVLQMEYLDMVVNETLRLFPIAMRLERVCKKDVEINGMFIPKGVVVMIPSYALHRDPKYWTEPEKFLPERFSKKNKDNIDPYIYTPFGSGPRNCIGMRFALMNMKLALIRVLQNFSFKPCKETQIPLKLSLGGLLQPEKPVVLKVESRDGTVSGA
Cytochrome P450 2C9, sequence (P11712 whole entry): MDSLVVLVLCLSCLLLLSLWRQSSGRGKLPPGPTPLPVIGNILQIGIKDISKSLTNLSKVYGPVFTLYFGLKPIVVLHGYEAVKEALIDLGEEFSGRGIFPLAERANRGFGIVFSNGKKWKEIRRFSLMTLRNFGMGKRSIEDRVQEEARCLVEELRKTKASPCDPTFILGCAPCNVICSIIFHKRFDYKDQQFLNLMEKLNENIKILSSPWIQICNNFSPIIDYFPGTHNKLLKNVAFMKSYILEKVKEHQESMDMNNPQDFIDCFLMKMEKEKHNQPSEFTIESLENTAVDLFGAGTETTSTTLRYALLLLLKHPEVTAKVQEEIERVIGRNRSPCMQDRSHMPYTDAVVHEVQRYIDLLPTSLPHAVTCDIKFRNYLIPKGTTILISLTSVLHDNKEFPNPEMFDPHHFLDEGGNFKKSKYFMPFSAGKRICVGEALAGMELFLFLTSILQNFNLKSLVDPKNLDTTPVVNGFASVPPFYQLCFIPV

For the molecule `CC(O)(CO)c1ccccc1CC[C@@H](SCC1(CC(=O)O)CC1)c1cccc(/C=C/c2ccc3ccc(Cl)cc3n2)c1` (stereo partly specified), the Drug metabolism result in the data set on Liver microsome [1] is given as “metabolite_detected”; on Cytochrome P450 3A4, “metabolite_not_detected”; on Cytochrome P450 2A6 [2], “metabolite_not_detected”; on Cytochrome P450 2C19 [3] it was “metabolite_not_detected”; on Cytochrome P450 2E1, “metabolite_not_detected”; at Cytochrome P450 3A5 it was “metabolite_not_detected”.
For `CC(C)(O)c1ccccc1CC[C@@H](SCC1(CC(=O)[O-])CC1)c1cccc(/C=C/c2ccc3ccc(Cl)cc3n2)c1.[Na+]` [MONTELUKAST SODIUM], the Drug metabolism result with Liver microsome [4] is “metabolite_detected”; in the data set on Liver microsome [5], “metabolite_detected”; in the data set on Liver microsome [7] it was “metabolite_not_detected”; in the data set on Liver microsome [8] it was “metabolite_not_detected”; in the data set on Liver microsome [9], “metabolite_not_detected”; at Cytochrome P450 2C19 [10], “metabolite_detected”. The Drug metabolism result on Cytochrome P450 2A6 [11] is on record as “metabolite_detected”. The same molecule had a bioavailability in data set [6] of 60%. The Ki at Cytochrome P450 2C9 was 7.4 µM. Moreover, the Fu in the data set with Plasma was 0.4%.

Usually bioavailability stands for the share of a dose that reaches the circulation, judged against a reference dose that is usually intravenous. What is called Ki is a dissociation constant, usually derived from enzyme kinetics or from competition with a known ligand.
